Each molecule was assayed against T1, HCV genotype 1b (BK) NS3 modified with a R155K mutation (Hepatitis C virus genotype 1b, UniProt P26663, R1181K) (assay: HCV NS3 protease time-resolved fluorescence (TRF) assay, NS3 protease 1b R155K Ki activity). Conditions: HCV genotype 1b (BK) NS3 with R155K mutation; TRF peptide substrate 100 nM; Ki derived from IC50.
T1 construct: HCV genotype 1b (BK) NS3 modified with a R155K mutation
Format: biochemical
Method in brief: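 Pre-incubation of NS3/NS4A protease (genotype 1b BK, R155K) with inhibitor for 30 min, then 1 h at room temperature with 100 nM TRF peptide substrate in pH 7.5 HEPES buffer with 10 mM DTT. Reaction quenched with pH 5.5 MES; time-resolved fluorescence read (ex 340/em 615 nm). Ki derived from four-parameter IC50 fit via IC50=Ki(1+[S]/KM).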

Structure (SMILES)	Ki [nM]
C=C[C@@H]1C[C@]1(NC(=O)[C@@H]1C[C@@H]2CN1C(=O)[C@H](C1CCCC1)NC(=O)O[C@@H]1CCC[C@H]1CC/C=C/Cc1c(nc3cc(OC)ccn3c1=O)O2)C(=O)NS(=O)(=O)C1CC1 [Example 57, (3aR,7S,10S,12R,22E,25aS)-7-cyclopentyl-N-((1R,2S)-1-{[(cyclopropylsulfonyl)amino]carbonyl}-2-vinylcylcopropyl)-16-methoxy-5,8,20-trioxo-1,2,3,3a,5,6,7,8,11,12,21,24,25,25a-tetradecahydro-10H,20H-9,12-methanocyclopenta[r]pyrido[1′,2′:1,2]pyrimido[4,5-k][1,10,3,6]dioxadiazacyclononadecine-10-carboxamide]	< 0.1
C=C[C@@H]1C[C@]1(NC(=O)[C@@H]1C[C@@H]2CN1C(=O)[C@H](C1CCCC1)NC(=O)O[C@@H]1CCC[C@H]1CC/C=C/Cn1c(nc3cc(C)ccc3c1=O)O2)C(=O)NS(=O)(=O)C1CC1 [Example 61]	< 0.1
C=C[C@@H]1C[C@]1(NC(=O)[C@@H]1C[C@@H]2CN1C(=O)[C@H](C1CCCC1)NC(=O)O[C@@H]1CCC[C@H]1CC/C=C/Cn1c(nc3cc(C#N)ccc3c1=O)O2)C(=O)NS(=O)(=O)C1CC1 [Example 63, (3aR,7S,10S,12R,22E,25a8)-16-cyano-7-cyclopentyl-N-((1R,2S)-1-{[(cyclopropylsulfonyl)amino]carbonyl}-2-vinylcyclopropyl)-5,8,19-trioxo-1,2,3,3a,5,6,7,8,11,12,21,24,25,25a-tetradecahydro-10H,19H-9,12-methanocyclopenta[18,19][1,10,3,6,12]dioxatriazacyclononadecino[11,12-b]quinazoline-10-carboxamide]	< 0.1
C=C[C@@H]1C[C@]1(NC(=O)[C@@H]1C[C@@H]2CN1C(=O)[C@H](C1CCCC1)NC(=O)O[C@@H]1CCC[C@H]1CCCCCn1c(nc3cc(C#N)ccc3c1=O)O2)C(=O)NS(=O)(=O)C1CC1 [Example 78, (3aR,7S,10S,12R,25aR)-16-cyano-7-cyclopentyl-N-((1R,2S)-1-{[(cycyclopropylsulfonyl)amino]carbonyl}-2-vinylcyclopropyl)-5,8,19-trioxo-1,2,3,3a,5,6,7,8,11,12,21,22,23,24,25,25a-hexadecahydro-10H,19H-9,12-methanocyclopenta[18,19][1,10,3,6,12]dioxatriazacyclononadecino[11,12-b]quinazoline-10-carboxamide]	0.1 to 0.5
C=C[C@@H]1C[C@]1(NC(=O)[C@@H]1C[C@@H]2CN1C(=O)[C@H](C1CCCC1)NC(=O)O[C@@H]1CCC[C@H]1CCC=CCn1c(cccc1=O)O2)C(=O)NS(=O)(=O)C1CC1 [Example 81, (1R,10E, and 10Z,14S,18R,22S,25S)-22-Cyclopentyl-N-((1R,2S)-1-{[(cyclopropyl-sulfonyl)amino]carbonyl}-2-vinylcyclopropyl)-7,20,23-trioxo-2,19-dioxa-8,21,24-tri azatetracyclo[22.2.1.0^3,8.0^14,18]heptacosa-3,5,10-triene-25-carboxamide]	0.1 to 0.5
